Results from PMC10257196 (Journal of Pharmaceutical Analysis, 2023).

Molecular target: alkyladenine DNA glycosylase (AAG) (Homo sapiens, UniProt P29372)
Test: TRES coupled AAG/APE1 activity assay at […]
Format: biochemical
Details: read-out: % inhibition at 10 μM

alkyladenine DNA glycosylase (AAG), sequence (P29372 18-298): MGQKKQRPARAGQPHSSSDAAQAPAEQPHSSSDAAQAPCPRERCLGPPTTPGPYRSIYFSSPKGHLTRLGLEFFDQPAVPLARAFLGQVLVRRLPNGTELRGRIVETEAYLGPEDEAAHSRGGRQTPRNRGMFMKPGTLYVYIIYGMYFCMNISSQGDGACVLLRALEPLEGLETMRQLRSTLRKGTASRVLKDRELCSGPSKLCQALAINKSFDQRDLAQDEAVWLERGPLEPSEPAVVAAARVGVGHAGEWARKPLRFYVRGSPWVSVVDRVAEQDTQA

Compound: O=c1c(O)c(-c2ccc(O)cc2O)oc2cc(O)cc(O)c12 [morin]
- inhibition at 10 µM: 77.5%
